| SMILES | melting point [°C] |
| --- | --- |
| CCC(CC)(CC)NC(=O)c1cnn2c1NC(c1ccccc1)CC2(C)C (centres unmarked) [Example 616, N-(1,1-diethylpropyl)-7,7-dimethyl-5-phenyl-4,5,6,7-tetrahydropyrazolo[1,5-a]pyrimidine-3-carboxamide] | 93 to 94 |
| CCC1(NC(=O)c2cnn3c2NC(c2ccccc2)CC3(C)C)CCS(=O)(=O)CC1 (centres unmarked) [Example 617, N-(4-ethyl-1,1-dioxidotetrahydro-2H-thiopyran-4-yl)-7,7-dimethyl-5-phenyl-4,5,6,7-tetrahydropyrazolo[1,5-a]pyrimidine-3-carboxamide] | 155 to 156 |
| CCC(C)(CC)NC(=O)c1cnn2c1NC(c1ccccc1)CC2(C)C (centres unmarked) [Example 618, N-(1-ethyl-1-methylpropyl)-7,7-dimethyl-5-phenyl-4,5,6,7-tetrahydropyrazolo[1,5-a]pyrimidine-3-carboxamide] | 88 to 89 |
| CCCC1(NC(=O)c2cnn3c2NC(c2ccccc2)CC3(C)C)CCCCC1 (centres unmarked) [Example 619, 7,7-dimethyl-5-phenyl-N-(1-propylcyclohexyl)-4,5,6,7-tetrahydropyrazolo[1,5-a]pyrimidine-3-carboxamide] | 152 to 153 |
| CCC(CC)(NC(=O)c1cnn2c1NC(c1ccccc1)CC2(C)C)C(C)C (centres unmarked) [Example 620, N-(1,1-diethyl-2-methylpropyl)-7,7-dimethyl-5-phenyl-4,5,6,7-tetrahydropyrazolo[1,5-a]pyrimidine-3-carboxamide] | 155 to 156 |
| CC(C)C(NC(=O)c1cnn2c1NC(c1ccccc1)CC2(C)C)C(C)C (centres unmarked) [Example 621, N-(1-isopropyl-2-methylpropyl)-7,7-dimethyl-5-phenyl-4,5,6,7-tetrahydropyrazolo[1,5-a]pyrimidine-3-carboxamide] | 168 to 169 |
| CCC1(NC(=O)c2cnn3c2NC(c2ccccc2)CC3(C)C)CCCCCC1 (centres unmarked) [Example 622, N-(1-ethylcycloheptyl)-7,7-dimethyl-5-phenyl-4,5,6,7-tetrahydropyrazolo[1,5-a]pyrimidine-3-carboxamide] | 129 to 130 |
| CCC1(NC(=O)c2cnn3c2NC(c2ccccc2)CC3(C)C)CC[S+]([O-])CC1 (centres unmarked) [Example 623, N-(4-ethyl-1-oxidotetrahydro-2H-thiopyran-4-yl)-7,7-dimethyl-5-phenyl-4,5,6,7-tetrahydropyrazolo[1,5-a]pyrimidine-3-carboxamide] | 172 to 173 |
| COC(=O)C1(NC(=O)c2cnn3c2NC(c2ccccc2)CC3(C)C)CCCCC1 (centres unmarked) [Example 624, methyl 1-(((7,7-dimethyl-5-phenyl-4,5,6,7-tetrahydropyrazolo[1,5-a]pyrimidin-3-yl)carbonyl)amino)cyclo-hexanecarboxylate] | 184 to 185 |
| CC1(C)CC(c2ccccc2)Nc2c(C(=O)NC3(C(=O)O)CCCCC3)cnn21 (centres unmarked) [Example 625, 1-(((7,7-dimethyl-5-phenyl-4,5,6,7-tetrahydropyrazolo[1,5-a]pyrimidin-3-yl)carbonyl)amino)cyclo-hexanecarboxylic acid] | 215 to 216 |
| CC1(C)CC(c2ccccc2)Nc2c(C(=O)NC3(C(N)=O)CCCCC3)cnn21 (centres unmarked) [Example 626, N-(1-(aminocarbonyl)cyclohexyl)-7,7-dimethyl-5-phenyl-4,5,6,7-tetrahydropyrazolo[1,5-a]pyrimidine-3-carboxamide] | 140 to 141 |
| CC1(C)CC(c2ccccc2)Nc2c(C(=O)NC3(C#N)CCCCC3)cnn21 (centres unmarked) [Example 627, N-(1-cyanocyclohexyl)-7,7-dimethyl-5-phenyl-4,5,6,7-tetrahydropyrazolo[1,5-a]pyrimidine-3-carboxamide] | > 300 |
| CCC(CC)(NC(=O)c1cnn2c1NC(c1ccccc1O)CC2(C)C)c1ccc(C(F)(F)F)cc1 (centres unmarked) [Example 629, N-(1-ethyl-1-(4-(trifluoro-methyl)phenyl)propyl)-5-(2-hydroxyphenyl)-7,7-dimethyl-4,5,6,7-tetrahydropyrazolo[1,5-a]pyrimidine-3-carboxamide] | 122 to 124 |
| CC1(C)CC(c2ccccc2)Nc2c(C(=O)NC3(CO)CCCCC3)cnn21 (centres unmarked) [Example 644, N-(1-(hydroxymethyl)cyclo-hexyl)-7,7-dimethyl-5-phenyl-4,5,6,7-tetrahydropyrazolo[1,5-a]pyrimidine-3-carboxamide] | 175 to 176 |
| CCCC(CC)(CC)NC(=O)c1cnn2c1NC(c1ccccc1)CC2(C)C (centres unmarked) [Example 646, N-(1,1-diethylbutyl)-7,7-dimethyl-5-phenyl-4,5,6,7-tetrahydropyrazolo[1,5-a]pyrimidine-3-carboxamide] | 76 to 77 |
| CCC(CC)(CCOC)NC(=O)c1cnn2c1NC(c1ccccc1)CC2(C)C (centres unmarked) [Example 664, N-(1,1-diethyl-3-methoxypropyl)-7,7-dimethyl-5-phenyl-4,5,6,7-tetrahydropyrazolo[1,5-a]pyrimidine-3-carboxamide] | 129 to 130 |
| CCC(CC)(CCSC)NC(=O)c1cnn2c1NC(c1ccccc1)CC2(C)C (centres unmarked) [Example 665, N-(1,1-diethyl-3-(methylthio)propyl)-7,7-dimethyl-5-phenyl-4,5,6,7-tetrahydropyrazolo[1,5-a]pyrimidine-3-carboxamide] | 154 to 155 |
| CCC(CC)(NC(=O)c1cnn2c1NC(c1ccccc1F)CC2(C)C)c1ccc(C(F)(F)F)cc1 (centres unmarked) [Example 675, N-(1-ethyl-1-(4-(trifluoromethyl)phenyl)propyl)-5-(2-fluorophenyl)-7,7-dimethyl-4,5,6,7-tetrahydropyrazolo[1,5-a]pyrimidine-3-carboxamide] | 200.9 to 201 |
| CCC(CC)(NC(=O)c1cnn2c1NC(C1CCCCC1)CC2(C)C)c1ccc(C(F)(F)F)cc1 (centres unmarked) [Example 676, 5-cyclohexyl-N-(1-ethyl-1-(4-(trifluoromethyl)phenyl)propyl)-7,7-dimethyl-4,5,6,7-tetrahydropyrazolo[1,5-a]pyrimidine-3-carboxamide] | 178.7 to 178.9 |
| CCC(CC)(NC(=O)c1cnn2c1NC(c1ccco1)CC2(C)C)c1ccc(C(F)(F)F)cc1 (centres unmarked) [Example 693, N-(1-ethyl-1-(4-(trifluoro-methyl)phenyl)propyl)-5-(2-furyl)-7,7-dimethyl-4,5,6,7-tetrahydropyrazolo[1,5-a]pyrimidine-3-carboxamide] | 212 to 214 |
| CCC(CC)(NC(=O)c1cnn2c1NC(c1ccc(F)cc1F)CC2(C)C)c1ccc(C(F)(F)F)cc1 (centres unmarked) [Example 694, 5-(2,4-difluorophenyl)-N-(1-ethyl-1-(4-(trifluoro-methyl)phenyl)propyl)-7,7-dimethyl-4,5,6,7-tetrahydropyrazolo[1,5-a]pyrimidine-3-carboxamide] | 198 to 199 |
| CCC(CC)(CCC(F)(F)F)NC(=O)c1cnn2c1NC(c1ccccc1)CC2(C)C (centres unmarked) [Example 698, N-(1,1-diethyl-4,4,4-trifluorobutyl)-7,7-dimethyl-5-phenyl-4,5,6,7-tetrahydropyrazolo[1,5-a]pyrimidine-3-carboxamide] | 84 to 85 |

Next, values leading:

| melting point [°C] | SMILES |
| --- | --- |
| 180 to 181 | CCC(CC)(NC(=O)c1cnn2c1NC(c1ccccc1)CC2(C)C)c1cccc(F)c1 (centres unmarked) [Example 615, N-(1-ethyl-1-(3-fluorophenyl)propyl)-7,7-dimethyl-5-phenyl-4,5,6,7-tetrahydropyrazolo[1,5-a]pyrimidine-3-carboxamide] |
| 155 to 156 | C=Cc1ccc(C(CC)(CC)NC(=O)c2cnn3c2NC(c2ccccc2)CC3(C)C)cc1 (centres unmarked) [Example 645, N-(1-ethyl-1-(4-vinylphenyl)propyl)-7,7-dimethyl-5-phenyl-4,5,6,7-tetrahydropyrazolo[1,5-a]pyrimidine-3-carboxamide] |
| 156 to 157 | CCc1ccc(C(CC)(CC)NC(=O)c2cnn3c2NC(c2ccccc2)CC3(C)C)cc1 (centres unmarked) [Example 647, N-(1-ethyl-1-(4-ethylphenyl)propyl)-7,7-dimethyl-5-phenyl-4,5,6,7-tetrahydropyrazolo[1,5-a]pyrimidine-3-carboxamide] |
| 156 to 157 | CCC(CC)(NC(=O)c1cnn2c1NC(c1ccccc1)CC2(C)C)c1ccc(Cl)c(Cl)c1 (centres unmarked) [Example 666, N-(1-(3,4-dichlorophenyl)-1-ethylpropyl)-7,7-dimethyl-5-phenyl-4,5,6,7-tetrahydropyrazolo[1,5-a]pyrimidine-3-carboxamide] |
| 182 to 183 | CCC(CC)(NC(=O)c1cnn2c1NC(c1ccccc1)CC2(C)C)c1ccc(I)cc1 (centres unmarked) [Example 667, N-(1-ethyl-1-(4-iodophenyl)propyl)-7,7-dimethyl-5-phenyl-4,5,6,7-tetrahydropyrazolo[1,5-a]pyrimidine-3-carboxamide] |
| 172 to 173 | CCC(CC)(NC(=O)c1cnn2c1NC(c1ccccc1)CC2(C)C)c1ccc(-c2ccc(OC)nc2)cc1 (centres unmarked) [Example 677, N-(1-ethyl-1-(4-(6-methoxy-3-pyridinyl)phenyl)propyl)-7,7-dimethyl-5-phenyl-4,5,6,7-tetrahydropyrazolo[1,5-a]pyrimidine-3-carboxamide] |
| 180 to 181 | CCC(CC)(NC(=O)c1cnn2c1NC(c1ccccc1)CC2(C)C)c1ccc(C(=O)OC)cc1 (centres unmarked) [Example 678, methyl 4-(1-(((7,7-dimethyl-5-phenyl-4,5,6,7-tetrahydropyrazolo[1,5-a]pyrimidin-3-yl)carbonyl)amino)-1-ethylpropyl)benzoate] |
| 220 to 222 | CCC(CC)(NC(=O)c1cnn2c1NC(c1ccccc1)CC2(C)C)c1ccc(Cl)cc1Cl (centres unmarked) [Example 680, N-(1-(2,4-dichlorophenyl)-1-ethylpropyl)-7,7-dimethyl-5-phenyl-4,5,6,7-tetrahydropyrazolo[1,5-a]pyrimidine-3-carboxamide] |
| 146 to 148 | CCC(CC)(NC(=O)c1c(C)nn2c1NC(c1ccccc1)CC2(C)C)c1ccc(Cl)cc1 (centres unmarked) [Example 696, N-(1-(4-chlorophenyl)-1-ethylpropyl)-2,7,7-trimethyl-5-phenyl-4,5,6,7-tetrahydropyrazolo[1,5-a]pyrimidine-3-carboxamide] |
| 143 to 145 | CCC(CC)(NC(=O)c1cnn2c1NC(c1ccccc1C)CC2(C)C)c1ccc(Cl)cc1 (centres unmarked) [Example 697, N-(1-(4-chlorophenyl)-1-ethylpropyl)-7,7-dimethyl-5-(2-methylphenyl)-4,5,6,7-tetrahydropyrazolo[1,5-a]pyrimidine-3-carboxamide] |

Reference: patent US9447100B2, “Substituted pyrazolo[1,5-A] pyrimidines as calcium receptor modulating agents” (Takeda Pharmaceutical Company Limited, priority 2002, dated 2016)
